Results reported in patent US9890133B2 (priority 2011, dated 2018).
≈ marks a conversion by molar mass, not a printed value.

Legend:
in vitro = conditions: human
Poliovirus 3 = assay: microbe, parasite or virus in culture; type: cell-based; conditions: Enterovirus C, read-out: Poliovirus3 EC50

Row | Structure (SMILES) | CC50 (in vitro; Picorana CC50) | melting point | CC50 (in vitro) | EC50 (Poliovirus 3)
1 | C=CC(=O)OC12Oc3cc(C(C)C)ccc3C1(O)C(=O)c1ccccc12 (centres unmarked) [Example 35, 9b-Hydroxy-7-isopropyl-10-oxo-9b,10-dihydro-4bH-benzo[d]indeno[1,2-b]furan-4b-yl acrylate] | 46.7 µg/mL (≈ 133 µM) | 95 to 97 °C |  | 
2 | CCC(C)c1ccc2c(c1)C1(O)C(=O)c3ccccc3C1(O)O2 (centres unmarked) [Example 19, 8-sec-Butyl-4b,9b-dihydroxy-4bH-benzo[d]indeno[1,2-b]furan-10(9bH)-one] | 8.34 µg/mL (≈ 26.9 µM) | 134 to 136 °C |  | 
3 | CCc1ccc2c(c1)C1(O)C(=O)c3ccccc3C1(O)O2 (centres unmarked) [Example 18, 8-Ethyl-4b,9b-dihydroxy-4bH-benzo[d]indeno[1,2-b]furan-10(9bH)-one] | 37.5 µg/mL (≈ 133 µM) | 157 to 159 °C |  | 
4 | CCc1ccc2c(c1)OC1(O)c3ccc(O)cc3C(=O)C21O (centres unmarked) [Example 52, 7-Ethyl-2,4b,9b-trihydroxy-4b,9b-dihydro-5-oxa-indeno[2,1-a]inden-10-one] | > 50 µg/mL | 208 to 213 °C |  | 
5 | CCC(C)(C)c1cc(C(C)(C)CC)c2c(c1)C1(O)C(=O)c3ccccc3C1(O)O2 (centres unmarked) [Example 28, 6,8-Bis-(1,1-dimethyl-propyl)-4b,9b-dihydroxy-4b,9b-dihydro-5-oxa-indeno[2,1-a]inden-10-one] | 9.2 µg/mL (≈ 23.3 µM) | 195 to 222 °C |  | 
6 | CCOC(=O)OC12Oc3cc(C(C)C)ccc3C1(OC(=O)OCC)C(=O)c1ccccc12 (centres unmarked) [Example 37, Diethyl 7-isopropyl-10-oxo-9b,10-dihydro-4bH-benzo[d]indeno[1,2-b]furane-4b,9b-diyl dicarbonate] | 9.68 µg/mL (≈ 22 µM) | 150 to 153 °C |  | 
7 | COc1ccc2c(c1)OC1(O)c3ccccc3C(=O)C21O (centres unmarked) [Example 7, 4b,9b-Dihydroxy-7-methoxy-4bH-benzo[d]indeno[1,2-b]furan-10(9bH)-one] | > 50 µg/mL | 98 to 100 °C |  | 
8 | CC(=O)OC12Oc3c(C(C)(C)C)cc(C(C)(C)C)cc3C1(OC(C)=O)C(=O)c1ccccc12 (centres unmarked) [Example 25, 6,8-di-tert-Butyl-10-oxo-9b,10-dihydro-4bH-benzo[d]indeno[1,2-b]furane-4b,9b-diyl diacetate] | > 50 µg/mL | 242 to 247 °C |  | 
9 | CC(C)c1ccc2c(c1)O[C@@]1(O)c3cccc([N+](=O)[O-])c3C(=O)[C@@]21O [Example 80, 4b,9b-Dihydroxy-7-isopropyl-1-nitro-4bH-benzo[d]indeno[1,2-b]furan-10(9bH)-one] | 47.5 µg/mL (≈ 139 µM) | 186 to 188 °C |  | 
10 | COC(=O)c1ccc2c(c1)C1(O)C(=O)c3ccccc3C1(O)O2 (centres unmarked) [Example 39, Methyl 4b,9b-dihydroxy-10-oxo-9b,10-dihydro-4bH-benzo[d]indeno[1,2-b]furan-8-carboxylate] | 45.1 µg/mL (≈ 144 µM) | 220 to 223 °C |  | 
11 | CC(C)c1ccc2c(c1)OC1(OC(=O)/C=C/c3ccccc3)c3ccccc3C(=O)C21OC(=O)/C=C/c1ccccc1 (centres unmarked) [Example 34, (2E,2′E)-7-Isopropyl-10-oxo-9b,10-dihydro-4bH-benzo[d]indeno[1,2-b]furan-4b,9b-diyl bis(3-phenylacrylate)] | > 50 µg/mL | 111 to 113 °C |  | 
12 | CCN(CC)C(=O)OC12Oc3cc(C(C)C)ccc3C1(O)C(=O)c1ccccc12 (centres unmarked) [Example 40, 9b-Hydroxy-7-isopropyl-10-oxo-9b,10-dihydro-4bH-benzo[d]indeno[1,2-b]furan-4b-yl diethylcarbamate] | 44 µg/mL (≈ 111 µM) | 127 to 130 °C |  | 
13 | O=C1c2ccccc2C2(O)Oc3ccc([N+](=O)[O-])cc3C12O (centres unmarked) [Example 14, 4b,9b-Dihydroxy-8-nitro-4bH-benzo[d]indeno[1,2-b]furan-10(9bH)-one] | > 50 µg/mL | 206 to 207 °C |  | 
14 | CC(C)c1ccc2c(c1)OC1(OCCO)c3ccccc3C(=O)C21O (centres unmarked) [Example 79, 9b-Hydroxy-4b-(2-hydroxyethoxy)-7-isopropyl-4bH-benzo[d]indeno[1,2-b]furan-10(9bH)-one] | 10.4 µg/mL (≈ 30.6 µM) | 100 to 105 °C |  | 
15 | CCN(CC)C(=O)OC12C(=O)c3ccccc3C1(O)Oc1cc(C(C)C)ccc12 (centres unmarked) [Example 41, 4b-Hydroxy-7-isopropyl-10-oxo-9b,10-dihydro-4bH-benzo[d]indeno[1,2-b]furan-9b-yl diethylcarbamate] | 27.1 µg/mL (≈ 68.6 µM) | 101 to 104 °C |  | 
16 | CC(C)c1ccc2c(c1)OC1(OC(=O)c3ccco3)c3ccccc3C(=O)C21O (centres unmarked) [Example 36, 9b-Hydroxy-7-isopropyl-10-oxo-9b,10-dihydro-4bH-benzo[d]indeno[1,2-b]furan-4b-yl furane-2-carboxylatefurane-2-carboxylic acid] | 9.34 µg/mL (≈ 23.9 µM) | 116 to 120 °C |  | 
17 | O=C1c2ccccc2C2(O)Oc3c(-c4ccccc4)cccc3C12O (centres unmarked) [Example 13, 4b,9b-Dihydroxy-6-phenyl-4bH-benzo[d]indeno[1,2-b]furan-10(9bH)-one] | 8.08 µg/mL (≈ 24.5 µM) | 182 to 183 °C |  | 

Row | Structure (SMILES) | CC50 (in vitro; Picorana CC50) | melting point | CC50 (in vitro) | EC50 (Poliovirus 3)
18 | Cc1ccc2c(c1)OC1(O)c3ccccc3C(=O)C21O (centres unmarked) [Example 1, 4b,9b-Dihydroxy-7-methyl-4bH-benzo[d]indeno[1,2-b]furan-10(9bH)-one] | > 50 µg/mL | 145 to 147 °C |  | 
19 | CCCCCCCCCCCCCCCc1ccc2c(c1)C1(O)C(=O)c3ccccc3C1(O)O2 (centres unmarked) [Example 27, 4b,9b-Dihydroxy-8-pentadecyl-4bH-benzo[d]indeno[1,2-b]furan-10(9bH)-one] | 43.9 µg/mL (≈ 94.5 µM) | 105 to 110 °C |  | 
20 | CC(=O)O[C@@]12Oc3cc(C(C)C)ccc3[C@]1(OC(C)=O)C(=O)c1c(NS(C)(=O)=O)cccc12 (stereo in doubt) [Example 54, acetic acid 4b-acetoxy-7-isopropyl-1-methanesulfonylamino-10-oxo-4b,10-dihydro-5-oxa-indeno[2,1-a]inden-9b-yl ester] | > 50 µg/mL | 96 to 100 °C |  | 
21 | O=C1c2ccccc2C2(O)Oc3cc4ccccc4cc3C12O (centres unmarked) [Example 15, 4b,11b-Dihydroxy-4bH-indeno[1,2-b]naphtho[2,3-d]furan-12(11 bH)-one] | 8.57 µg/mL (≈ 28.2 µM) | 220 to 221 °C |  | 
22 | CCOC(=O)N[C@@]12C(=O)c3ccccc3[C@]1(O)Oc1cc(C(C)C)ccc12 |  | 115 to 118 °C |  | 
23 | CC(C)c1ccc2c(c1)OC1(O)c3ccccc3C(=O)C21NC(=O)c1ccc([N+](=O)[O-])s1 (centres unmarked) [Example 223, N-(4b-hydroxy-7-isopropyl-10-oxo-9b,10-dihydro-4bH-benzo[d]indeno[1,2-b]furan-9b-yl)-5-nitrothiophene-2-carboxamide] | 7.46 µg/mL (≈ 16.6 µM) |  | 4.36 µg/mL (≈ 9.68 µM) | < 0.01 µg/mL
24 | CC(C)c1ccc2c(c1)OC1(O)c3cccc(N)c3C(=O)C21NC(=O)Cn1cnnn1 (centres unmarked) [Example 213, N-(1-Amino-4b-hydroxy-7-isopropyl-10-oxo-9b,10-dihydro-4bH-benzo[d]indeno[1,2-b]furan-9b-yl)-2-(1H-tetrazol-1-yl)acetamide] |  |  | > 10 µg/mL | < 0.01 µg/mL
25 | Cc1cc2c(cc1C)C1(NC(=O)c3cccnc3)C(=O)c3c(N)cccc3C1(O)O2 (centres unmarked) [Example 260, N-(1-Amino-4b-hydroxy-7,8-dimethyl-10-oxo-9b,10-dihydro-4bH-indeno[1,2-b]benzofuran-9b-yl)nicotinamide] |  |  | > 10 µg/mL | 0.04 µg/mL (≈ 0.0996 µM)
26 | Cc1ccnc(C(=O)NC23C(=O)c4c(N)cccc4C2(O)Oc2cc(C(C)C)ccc23)c1 (centres unmarked) [Example 243, N-(1-Amino-4b-hydroxy-7-isopropyl-10-oxo-9b,10-dihydro-4bH-benzo[d]indeno[1,2-b]furan-9b-yl)-4-methylpicolinamide] | 7.36 µg/mL (≈ 17.1 µM) |  | > 10 µg/mL | < 0.01 µg/mL
27 | CC(C)c1ccc2c(c1)OC1(O)c3cccc(N)c3C(=O)C21NC(=O)c1ccc2nnnn2c1 (centres unmarked) [Example 278, N-(1-Amino-4b-hydroxy-7-isopropyl-10-oxo-9b,10-dihydro-4bH-indeno[1,2-b]benzofuran-9b-yl)tetrazolo[1,5-a]pyridine-6-carboxamide] |  |  | > 10 µg/mL | < 0.01 µg/mL
28 | CCCCOC(=O)OC12Oc3cc(C(C)C)ccc3C1(NC(C)=O)C(=O)c1c(N)cccc12 (centres unmarked) [Example 115, 9b-Acetamido-1-amino-7-isopropyl-10-oxo-9b,10-dihydro-4bH-benzo[d]indeno[1,2-b]furan-4b-yl butyl carbonate] | 42.8 µg/mL (≈ 94.6 µM) |  | 23.1 µg/mL (≈ 51.1 µM) | < 0.01 µg/mL
29 | CC(C)c1ccc2c(c1)OC1(O)c3cccc(N)c3C(=O)C21NC(=O)c1n[nH]c2ccccc12 (centres unmarked) [Example 212, N-(1-Amino-4b-hydroxy-7-isopropyl-10-oxo-9b,10-dihydro-4bH-benzo[d]indeno[1,2-b]furan-9b-yl)-1H-indazole-3-carboxamide] |  |  | > 10 µg/mL | < 0.01 µg/mL
30 | COc1cc(C(=O)NC23C(=O)c4c(N)cccc4C2(O)Oc2cc(C(C)C)ccc23)ccn1 (centres unmarked) [Example 234, N-(1-Amino-4b-hydroxy-7-isopropyl-10-oxo-9b,10-dihydro-4bH-indeno[1,2-b]benzofuran-9b-yl)-2-methoxyisonicotinamide] | 9.1 µg/mL (≈ 20.4 µM) |  | > 10 µg/mL | < 0.01 µg/mL
31 | CC(C)c1ccc2c(c1)OC1(O)c3cccc(N)c3C(=O)C21NC(=O)c1cn2cccnc2n1 (centres unmarked) [Example 285, N-(1-Amino-4b-hydroxy-7-isopropyl-10-oxo-9b,10-dihydro-4bH-indeno[1,2-b]benzofuran-9b-yl)imidazo[1,2-a]pyrimidine-2-carboxamide] |  |  | > 10 µg/mL | < 0.01 µg/mL
32 | CC(C)c1ccc2c(c1)OC1(O)c3ccccc3C(=O)C21NC(=O)c1cccs1 (centres unmarked) [Example 161, N-(4b-Hydroxy-7-isopropyl-10-oxo-9b,10-dihydro-4bH-indeno[1,2-b]benzofuran-9b-yl)thiophene-2-carboxamide] | 40.7 µg/mL (≈ 100 µM) |  | 17.9 µg/mL (≈ 44.1 µM) | < 0.01 µg/mL
33 | CC(C)c1ccc2c(c1)OC1(O)c3cccc(N)c3C(=O)C21NC(=O)c1n[nH]cc1[N+](=O)[O-] (centres unmarked) [Example 242, N-(1-Amino-4b-hydroxy-7-isopropyl-10-oxo-9b,10-dihydro-4bH-benzo[d]indeno[1,2-b]furan-9b-yl)-4-nitro-1H-pyrazole-3-carboxamide] | 8.55 µg/mL (≈ 19 µM) |  | > 10 µg/mL | < 0.01 µg/mL
